Data published in ChEMBL document CHEMBL6182935, “Discovery of a Novel Silybin Derivative for the Treatment of Metabolic Dysfunction-Associated Steatohepatitis” (J Med Chem, 2025).
Values after ≈ are worked out from the molar mass of the structure shown. Blank lines part the entries; values can stand above or below the compound they belong to. Active and inactive are the calls of the source. The rule behind the calls is not given here.

Tests used:
[1] = Antioxidant activity assessed as inhibition of superoxide anion scavenging activity incubated for 5 mins in presence of pyrogallol; assay type: functional
[2] = Solubility in […] incubated for 10 mins; assay type: physicochemical
[3] = Antioxidant activity assessed as inhibition of DPPH free radical scavenging activity incubated for 30 mins under dark condition; assay type: functional
[4] = Solubility in water incubated for 10 mins; assay type: physicochemical
[5] = Antioxidant activity assessed as clearing rate incubated for 5 mins in presence of pyrogallol by superoxide anion scavenging assay; assay type: functional
[6] = Solubility in ethyl acetate incubated for 10 mins; assay type: physicochemical
[7] = Inhibition of lipid peroxidation in egg yolk (unknown origin) at 100 uM preheated with compound and FeSO4 for 15 mins followed by TCA/TBA addition measured after 15 mins by absorbance based assay relative to control; assay type: functional, tissue-based; parameters: scale not given: the % may be the effect or the level left; conditions: time 30.0 min
[8] = Solubility in methanol incubated for 10 mins; assay type: physicochemical
[9] = Inhibition of lipid peroxidation in egg yolk (unknown origin) preheated with compound and FeSO4 for 15 mins followed by TCA/TBA addition measured after 15 mins by absorbance based assay; assay type: functional, tissue-based
[10] = Antioxidant activity assessed as clearing rate incubated for 30 mins under dark condition by DPPH free radical scavenging assay; assay type: functional
Mus musculus [11] = test: Anti-MASH activity in HFD-fed CCl4-treated male C57BL/6 mouse assessed as reduction in inflammation in liver at 150 mg/kg, po qd treated for 4 weeks by H and E/Oil red O staining based analysis; assay type: functional, organism-based
[12] = AUC (0 to infinity) in overnight-fasted male Sprague-Dawley rat at 150 mg/kg, po measured up to 12 hrs by HPLC analysis; assay type: ADME, organism-based; conditions: in vivo
[13] = Tmax in overnight-fasted male Sprague-Dawley rat at 150 mg/kg, po measured up to 12 hrs by HPLC analysis; assay type: ADME, organism-based; conditions: in vivo
[14] = Toxicity in male Sprague-Dawley rat model of CCl4-induced ALI assessed as animal growth at 100 mg/kg, IG qd pretreated with compound for 7 days followed by CCl4 administration after 2 hrs post-compound treatment measured after 16 hrs post-CCl4 injection; assay type: organism-based; conditions: in vivo, po, 186 h
Mus musculus [15] = test: Anti-MASH activity in HFD-fed CCl4-treated male C57BL/6 mouse assessed as reduction in fat accumulation in liver at 150 mg/kg, po qd treated for 4 weeks by Oil red O staining based analysis; assay type: functional, organism-based
[16] = MRT (0 to infinity) in overnight-fasted male Sprague-Dawley rat at 150 mg/kg, po measured up to 12 hrs by HPLC analysis; assay type: ADME, organism-based; conditions: in vivo
[17] = Apparent volume of distribution during terminal phase in overnight-fasted male Sprague-Dawley rat at 150 mg/kg, po measured up to 12 hrs by HPLC analysis; assay type: ADME, organism-based; conditions: in vivo, read-out: Vz/F
Rattus norvegicus [18] = test: Hepatoprotective activity in male Sprague-Dawley rat model of CCl4-induced ALI assessed as restoration of serum AST level at 100 mg/kg, IG qd pretreated with compound for 7 days followed by CCl4 administration after 2 hrs post-compound treatment measured after 16 hrs post-CCl4 injection; assay type: functional, organism-based; conditions: time 186.0 hrs
Mus musculus [19] = test: Anti-MASH activity in HFD-fed CCl4-treated male C57BL/6 mouse assessed as reduction in hepatic triglyceride level at 150 mg/kg, po qd treated for 4 weeks by ELISA; assay type: functional, organism-based
Rattus norvegicus [20] = test: Hepatoprotective activity in male Sprague-Dawley rat model of CCl4-induced ALI assessed as reduction in roughened surface in liver at 100 mg/kg, IG qd pretreated with compound for 7 days followed by CCl4 administration after 2 hrs post-compound treatment measured after 16 hrs post-CCl4 injection; assay type: functional, organism-based; conditions: time 186.0 hrs
Rattus norvegicus [21] = test: (§1) Hepatoprotective activity in male Sprague-Dawley rat model of CCl4-induced ALI assessed as reduction in yellowing of liver at 100 mg/kg, IG qd pretreated with compound for 7 days followed by CCl4 administration after 2 hrs post-compound treatment measured after 16 hrs post-CCl4 injection; assay type: functional, organism-based; conditions: time 186.0 hrs
[22] = Toxicity in male Sprague-Dawley rat model of CCl4-induced ALI assessed as body weight change at 100 mg/kg, IG qd pretreated with compound for 7 days followed by CCl4 administration after 2 hrs post-compound treatment measured after 16 hrs post-CCl4 injection; assay type: organism-based; conditions: in vivo, po, 186 h
Rattus norvegicus [23] = test: Hepatoprotective activity in male Sprague-Dawley rat model of CCl4-induced ALI assessed as restoration of serum LDH level at 100 mg/kg, IG qd pretreated with compound for 7 days followed by CCl4 administration after 2 hrs post-compound treatment measured after 16 hrs post-CCl4 injection; assay type: functional, organism-based; conditions: time 186.0 hrs
Mus musculus [24] = test: Anti-MASH activity in HFD-fed CCl4-treated male C57BL/6 mouse assessed as reversal of hepatopancreas somatic indices at 150 mg/kg, po qd treated for 4 weeks; assay type: functional, organism-based
Rattus norvegicus [25] = test: Hepatoprotective activity in male Sprague-Dawley rat model of CCl4-induced ALI assessed as restoration of serum ALT level at 100 mg/kg, IG qd pretreated with compound for 7 days followed by CCl4 administration after 2 hrs post-compound treatment measured after 16 hrs post-CCl4 injection; assay type: functional, organism-based; conditions: time 186.0 hrs
[26] = Cmax in overnight-fasted male Sprague-Dawley rat at 150 mg/kg, po measured up to 12 hrs by HPLC analysis; assay type: ADME, organism-based; conditions: in vivo
Rattus norvegicus [27] = test: Hepatoprotective activity in male Sprague-Dawley rat model of CCl4-induced ALI assessed as reduction in dullness of liver margin at 100 mg/kg, IG qd pretreated with compound for 7 days followed by CCl4 administration after 2 hrs post-compound treatment measured after 16 hrs post-CCl4 injection; assay type: functional, organism-based; conditions: time 186.0 hrs
[28] = Apparent clearance during terminal phase in overnight-fasted male Sprague-Dawley rat at 150 mg/kg, po measured up to 12 hrs by HPLC analysis; assay type: ADME, organism-based; conditions: in vivo, read-out: CLz/F (converted)
Rattus norvegicus [29] = test: as §1, with “vacuoles” for “yellowing of liver”, “injection by H and E staining based analysis” for “injection”; assay type: functional, organism-based; conditions: time 186.0 hrs
Mus musculus [30] = test: Anti-MASH activity in HFD-fed CCl4-treated male C57BL/6 mouse assessed as reduction in steatosis in liver at 150 mg/kg, po qd treated for 4 weeks by H and E/Oil red O staining based analysis; assay type: functional, organism-based
Rattus norvegicus [31] = test: (§2) Hepatoprotective activity in male Sprague-Dawley rat model of CCl4-induced ALI assessed as reduction in white granular fat in liver at 100 mg/kg, IG qd pretreated with compound for 7 days followed by CCl4 administration after 2 hrs post-compound treatment measured after 16 hrs post-CCl4 injection; assay type: functional, organism-based; conditions: time 186.0 hrs
Mus musculus [32] = test: Anti-MASH activity in HFD-fed CCl4-treated male C57BL/6 mouse assessed as reduction in hepatic cholesterol level at 150 mg/kg, po qd treated for 4 weeks by ELISA; assay type: functional, organism-based
Rattus norvegicus [33] = test: as §2, with “acute” for “white granular”, “deposition” for “in liver”, “injection by oil red O staining based analysis” for “injection”; assay type: functional, organism-based; conditions: time 186.0 hrs
[34] = Terminal half life in overnight-fasted male Sprague-Dawley rat at 150 mg/kg, po measured up to 12 hrs by HPLC analysis; assay type: ADME, organism-based; conditions: in vivo, read-out: beta t1/2 (converted)
Mus musculus [35] = test: Anti-MASH activity in HFD-fed CCl4-treated male C57BL/6 mouse assessed as reduction in hepatocyte ballooning in liver at 150 mg/kg, po qd treated for 4 weeks by H and E/Oil red O staining based analysis; assay type: functional, organism-based

IC50 [1]: > 200 µM | solubility [2]: > 1000 mg/mL | IC50 [3]: 158 µM | solubility at 10 min [4]: 0.19 mg/mL (≈ 0.191 mM) | solubility [6]: 523 mg/mL (≈ 526 mM) | solubility [8]: 246 mg/mL (≈ 247 mM) | IC50 [9]: 28.7 µM
SMILES: COc1cc(C2Oc3cc([C@H]4Oc5cc(O)cc(O)c5C(=O)[C@@H]4O)ccc3OC2CSSCC2Oc3ccc([C@H]4Oc5cc(O)cc(O)c5C(=O)[C@@H]4O)cc3O[C@H]2c2ccc(O)c(OC)c2)ccc1O (single isomer, unassigned)
Activity [5]: 40.6% | Activity [7]: 75.2% | Activity [10]: 53.9%

AUC(0-inf) [12]: 494 ng·h/mL | Tmax [13]: 1.02 h | IC50 [1]: > 200 µM | MRT inf [16]: 5.22 h | solubility [2]: 367 mg/mL (≈ 761 mM) | Vd/F [17]: 447 L | IC50 [3]: > 200 µM | solubility at 10 min [4]: 0.14 mg/mL (≈ 0.29 mM) | Cmax [26]: 194 ng/mL | CL/F [28]: 1250 mL/min | solubility [6]: 15.4 mg/mL (≈ 31.9 mM) | solubility [8]: 10.6 mg/mL (≈ 22 mM) | IC50 [9]: > 100 µM | half-life [34]: 2.45 h
SMILES: COc1cc([C@@H]2Oc3cc([C@H]4Oc5cc(O)cc(O)c5C(=O)[C@@H]4O)ccc3OC2CO)ccc1O (stereo not given in full)
Activity (Mus musculus [11]): Active | Activity [14]: Non-toxic | Activity (Mus musculus [15]): Active | Activity (Rattus norvegicus [18]): Active | Activity (Mus musculus [19]): Active | Activity (Rattus norvegicus [20]): Active | Activity (Rattus norvegicus [21]): Active | Activity [22]: Non-toxic | Activity (Rattus norvegicus [23]): Active | Activity (Mus musculus [24]): Active | Activity (Rattus norvegicus [25]): Active | Activity [5]: 34.6% | Activity (Rattus norvegicus [27]): Active | Activity [7]: 39.6% | Activity (Rattus norvegicus [29]): Active | Activity (Mus musculus [30]): Active | Activity (Rattus norvegicus [31]): Active | Activity (Mus musculus [32]): Active | Activity (Rattus norvegicus [33]): Active | Activity (Mus musculus [35]): Active | Activity [10]: 47.2%

IC50 [1]: > 200 µM | solubility [2]: > 1000 mg/mL | IC50 [3]: > 200 µM | solubility at 10 min [4]: 0.3 mg/mL (≈ 0.555 mM) | solubility [6]: > 1000 mg/mL | solubility [8]: > 1000 mg/mL | IC50 [9]: 24 µM
SMILES: COc1cc([C@@H]2Oc3cc([C@H]4Oc5cc(O)cc(O)c5C(=O)[C@@H]4O)ccc3OC2CSC(C)=O)ccc1O (stereo not given in full)
Activity [5]: 36.6% | Activity [7]: 83.8% | Activity [10]: 39.3%
